PubChem BioAssay AID1963841 (Molecular Pharmacology Branch, DTP, NCI, 2024)

Test system: 439559-082-T-J2-PDC spheroid viability
Test: Anticancer human tumor 439559-082-T-J2-PDC patient-derived colon adenocarcinoma cell line growth inhibition [POLQ]
Details: spheroids with HUVEC and MSC; for IC50: curve of first compound; for viability, T/C: stronger effect = lower value
In short: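 Patient-derived tumour cells were co-cultured with HUVEC and mesenchymal stem cells as multicellular spheroids at 37 °C. They were treated with POLQ inhibitors (novobiocin, ART-558, RP6685) alone or combined with other agents. Top concentrations were at or near clinical Cmax (otherwise 10 microM; SN-38 at 1 microM), decreasing in half-log steps.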

[1] = second compound 0.0316 µM, first compound 0.0316 µM
[2] = second compound 0.0316 µM, first compound 0.1 µM
[3] = second compound 0.0316 µM, first compound 0.316 µM
[4] = second compound 0.0316 µM, first compound 1 µM
[5] = second compound 0.1 µM, first compound 0.0316 µM
[6] = second compound 0.1 µM, first compound 0.1 µM
[7] = second compound 0.1 µM, first compound 0.316 µM
[8] = second compound 0.1 µM, first compound 1 µM
[9] = second compound 0.316 µM, first compound 0.0316 µM
[10] = second compound 0.316 µM, first compound 0.1 µM
[11] = second compound 0.316 µM, first compound 0.316 µM
[12] = second compound 0.316 µM, first compound 1 µM
[13] = second compound 1 µM, first compound 0.0316 µM
[14] = second compound 1 µM, first compound 0.1 µM
[15] = second compound 1 µM, first compound 0.316 µM
[16] = second compound 1 µM, first compound 1 µM
[17] = second compound 3.16 µM, first compound 0.0316 µM
[18] = second compound 3.16 µM, first compound 0.1 µM
[19] = second compound 3.16 µM, first compound 0.316 µM
[20] = second compound 3.16 µM, first compound 1 µM
[21] = second compound 10 µM, first compound 0.0316 µM
[22] = second compound 10 µM, first compound 0.1 µM
[23] = second compound 10 µM, first compound 0.316 µM
[24] = second compound 10 µM, first compound 1 µM
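Note: spheroids exposed to compounds for seven days before readout.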
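Throughout, for viability, T/C: 100% = DMSO vehicle control viability.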

`CC(=O)O[C@H]1C(=O)[C@@]2(C)[C@H]([C@H](OC(=O)c3ccccc3)[C@]3(O)C[C@H](OC(=O)[C@H](O)[C@@H](NC(=O)c4ccccc4)c4ccccc4)C(C)=C1C3(C)C)[C@]1(OC(C)=O)CO[C@@H]1C[C@@H]2O` + COC1C(OC(N)=O)C(O)C(Oc2ccc3c(O)c(NC(=O)c4ccc(O)c(CC=C(C)C)c4)c(=O)oc3c2C)OC1(C)C showed an IC50 (second compound 0.0316 µM) of 1050 nM, an IC50 (second compound 0.1 µM) of 1480 nM and an IC50 (second compound 0.316 µM) of 1380 nM. For the same compound, the IC50 (second compound 1 µM) was 1500 nM, the IC50 (second compound 3.16 µM) was 1280 nM and the IC50 (second compound 10 µM) was 1530 nM. The viability, T/C (second compound 0.0316 µM, first compound 0.00949 µM) was 87.2%, the viability, T/C (second compound 0.0316 µM, first compound 0.03 µM) was 90.8% and the viability, T/C (second compound 0.0316 µM, first compound 0.0949 µM) was 78.8%. For the same compound, the viability, T/C (second compound 0.0316 µM, first compound 0.3 µM) was 77%, the viability, T/C (second compound 0.0316 µM, first compound 0.949 µM) was 49.9% and the viability, T/C (second compound 0.0316 µM, first compound 3 µM) was 39.4%. The viability, T/C (second compound 0.1 µM, first compound 0.00949 µM) was 90.8%, the viability, T/C (second compound 0.1 µM, first compound 0.03 µM) was 88.4% and the viability, T/C (second compound 0.1 µM, first compound 0.0949 µM) was 80.6%. The viability, T/C (second compound 0.1 µM, first compound 0.3 µM) was 75.3%, the viability, T/C (second compound 0.1 µM, first compound 0.949 µM) was 57.1% and the viability, T/C (second compound 0.1 µM, first compound 3 µM) was 37.4%. The viability, T/C (second compound 0.316 µM, first compound 0.00949 µM) was 93.5%, the viability, T/C (second compound 0.316 µM, first compound 0.03 µM) was 89.6% and the viability, T/C (second compound 0.316 µM, first compound 0.0949 µM) was 80.4%. For the same compound, the viability, T/C (second compound 0.316 µM, first compound 0.3 µM) was 71%, the viability, T/C (second compound 0.316 µM, first compound 0.949 µM) was 56.5% and the viability, T/C (second compound 0.316 µM, first compound 3 µM) was 37.1%. The viability, T/C (second compound 1 µM, first compound 0.00949 µM) was 90.1%, the viability, T/C (second compound 1 µM, first compound 0.03 µM) was 87.2% and the viability, T/C (second compound 1 µM, first compound 0.0949 µM) was 79.3%. The viability, T/C (second compound 1 µM, first compound 0.3 µM) was 73%, the viability, T/C (second compound 1 µM, first compound 0.949 µM) was 57.8% and the viability, T/C (second compound 1 µM, first compound 3 µM) was 38.5%. For the same compound, the viability, T/C (second compound 3.16 µM, first compound 0.00949 µM) was 90.3%, the viability, T/C (second compound 3.16 µM, first compound 0.03 µM) was 83.3% and the viability, T/C (second compound 3.16 µM, first compound 0.0949 µM) was 82.3%. The viability, T/C (second compound 3.16 µM, first compound 0.3 µM) was 69.1%, the viability, T/C (second compound 3.16 µM, first compound 0.949 µM) was 53.2% and the viability, T/C (second compound 3.16 µM, first compound 3 µM) was 40.4%. For the same compound, the viability, T/C (second compound 10 µM, first compound 0.00949 µM) was 90.8%, the viability, T/C (second compound 10 µM, first compound 0.03 µM) was 80.1% and the viability, T/C (second compound 10 µM, first compound 0.0949 µM) was 80.5%. It also gave a viability, T/C (second compound 10 µM, first compound 0.3 µM) of 74.8%, a viability, T/C (second compound 10 µM, first compound 0.949 µM) of 55% and a viability, T/C (second compound 10 µM, first compound 3 µM) of 40.2%.

For `CCCS(=O)(=O)Nc1ccc(F)c(C(=O)c2c[nH]c3ncc(-c4ccc(Cl)cc4)cc23)c1F` + Nc1ccc(C#CCN(C(=O)Cc2ncc(C(F)(F)F)cc2C(F)(F)F)c2ccc(F)cc2)nn1, the IC50 (second compound 0.0316 µM) was 7870 nM, the IC50 (second compound 0.1 µM) was 7940 nM and the IC50 (second compound 0.316 µM) was 8880 nM. For the same compound, the IC50 (second compound 1 µM) was 8430 nM, the IC50 (second compound 3.16 µM) was 8500 nM and the IC50 (second compound 10 µM) was 8290 nM. It also gave a viability, T/C [1] of 66%, a viability, T/C [2] of 72.5% and a viability, T/C [3] of 94.9%. It also gave a viability, T/C [4] of 90.5%, a viability, T/C (second compound 0.0316 µM, first compound 3.16 µM) of 78.2% and a viability, T/C (second compound 0.0316 µM, first compound 10 µM) of 42.5%. It also gave a viability, T/C [5] of 79.8%, a viability, T/C [6] of 64.4% and a viability, T/C [7] of 92.4%. The viability, T/C [8] was 98.2%, the viability, T/C (second compound 0.1 µM, first compound 3.16 µM) was 82% and the viability, T/C (second compound 0.1 µM, first compound 10 µM) was 41.9%. It also gave a viability, T/C [9] of 65.4%, a viability, T/C [10] of 77% and a viability, T/C [11] of 93.4%. The viability, T/C [12] was 103%, the viability, T/C (second compound 0.316 µM, first compound 3.16 µM) was 88.7% and the viability, T/C (second compound 0.316 µM, first compound 10 µM) was 45.9%. For the same compound, the viability, T/C [13] was 52.6%, the viability, T/C [14] was 68.7% and the viability, T/C [15] was 95.9%. The viability, T/C [16] was 107%, the viability, T/C (second compound 1 µM, first compound 3.16 µM) was 81% and the viability, T/C (second compound 1 µM, first compound 10 µM) was 44.6%. The viability, T/C [17] was 61.6%, the viability, T/C [18] was 66.6% and the viability, T/C [19] was 103%. For the same compound, the viability, T/C [20] was 99.6%, the viability, T/C (second compound 3.16 µM, first compound 3.16 µM) was 91.5% and the viability, T/C (second compound 3.16 µM, first compound 10 µM) was 44.3%. For the same compound, the viability, T/C [21] was 60.9%, the viability, T/C [22] was 69.3% and the viability, T/C [23] was 89.4%. It also gave a viability, T/C [24] of 104%, a viability, T/C (second compound 10 µM, first compound 3.16 µM) of 85.6% and a viability, T/C (second compound 10 µM, first compound 10 µM) of 43.8%.

In the case of `CCc1c2c(nc3ccc(O)cc13)-c1cc3c(c(=O)n1C2)COC(=O)[C@]3(O)CC` + Nc1ccc(C#CCN(C(=O)Cc2ncc(C(F)(F)F)cc2C(F)(F)F)c2ccc(F)cc2)nn1, the IC50 (second compound 0.0316 µM) is reported as > 1000 nM, the IC50 (second compound 0.1 µM) is reported as > 1000 nM and the IC50 (second compound 0.316 µM) is reported as > 1000 nM. The IC50 (second compound 1 µM) was > 1000 nM, the IC50 (second compound 3.16 µM) was 875 nM and the IC50 (second compound 10 µM) was 840 nM. For the same compound, the viability, T/C (second compound 0.0316 µM, first compound 0.00316 µM) was 102%, the viability, T/C (second compound 0.0316 µM, first compound 0.01 µM) was 79.3% and the viability, T/C [1] was 75.1%. The viability, T/C [2] was 83.4%, the viability, T/C [3] was 81.6% and the viability, T/C [4] was 52.8%. It also gave a viability, T/C (second compound 0.1 µM, first compound 0.00316 µM) of 91.4%, a viability, T/C (second compound 0.1 µM, first compound 0.01 µM) of 79.4% and a viability, T/C [5] of 71%. For the same compound, the viability, T/C [6] was 73.1%, the viability, T/C [7] was 75.7% and the viability, T/C [8] was 55.1%. The viability, T/C (second compound 0.316 µM, first compound 0.00316 µM) was 88.5%, the viability, T/C (second compound 0.316 µM, first compound 0.01 µM) was 80.6% and the viability, T/C [9] was 63.4%. The viability, T/C [10] was 74.9%, the viability, T/C [11] was 90.4% and the viability, T/C [12] was 53.1%. For the same compound, the viability, T/C (second compound 1 µM, first compound 0.00316 µM) was 93.3%, the viability, T/C (second compound 1 µM, first compound 0.01 µM) was 81% and the viability, T/C [13] was 75%. For the same compound, the viability, T/C [14] was 68.2%, the viability, T/C [15] was 86% and the viability, T/C [16] was 50.6%. For the same compound, the viability, T/C (second compound 3.16 µM, first compound 0.00316 µM) was 87.5%, the viability, T/C (second compound 3.16 µM, first compound 0.01 µM) was 81.2% and the viability, T/C [17] was 69.2%. The viability, T/C [18] was 72.9%, the viability, T/C [19] was 81.5% and the viability, T/C [20] was 46.5%. It also gave a viability, T/C (second compound 10 µM, first compound 0.00316 µM) of 92.6%, a viability, T/C (second compound 10 µM, first compound 0.01 µM) of 74.4% and a viability, T/C [21] of 76.8%. The viability, T/C [22] was 73.9%, the viability, T/C [23] was 80% and the viability, T/C [24] was 44.8%.
